Columns and labels:
[1] = Cytotoxicity, MTT method, Hep-2 cells; format: cell-based; conditions: human
Experimental: (§1) The 50% cell cytotoxic concentrations (CC50s) of compounds were calculated using SPSS software. SI were calculated from the ratio of CC50: EC50.

HSV-1 [2] = experiment: Virus yield reduction assay, HSV-1; format: cell-based, herpes simplex virus 1; conditions: Hep-2 cells, — = less than 90% inhibition
HSV-1 [3] = experiment: Plaque reduction assay, HSV-1 in Hep-2 cells; conditions: for SI HSV-1, ratio CC50/EC50 / inhibition of HSV-1-induced plaque formation: Hep-2 cells; for EC50: Human alphaherpesvirus 1, HEp-2, read-out: EC50 HSV-1; for inhibition of HSV-1-induced plaque formation: inhibition achievable
Experimental: Confluent monolayers of Hep-2 cells, seeded in a 24-well plate, were infected with HSV-1 at a density of 60–80 plaque-forming units (PFU) per well and treated with media (pre-warmed DMEM containing 2% FBS, 0.8% low-melting agarose) mixed with or without the serially diluted tested compounds for the periods indicated following different procedures. The cells were incubated at 37°C until plaques appeared, followed by fixing with 10% formaldehyde and staining with 0.5% crystal violet. The plaques were counted by visual examination. The ratio of the number of plaques in the treated group to that in the untreated control was calculated.
A plaque reduction assay was performed to measure the inhibitory effects of the test compounds against HSV-1 infection.

[4] = Cytotoxicity, MTT method, MDCK cells; format: cell-based, canine; conditions: dog, uninfected MDCK cells, host cells of H1N1: MDCK
Experimental: as §1

H1N1 [5] = experiment: Inhibition of H1N1-induced CPE in MDCK cells; format: cell-based, influenza virus A/human/Hubei/86/2009 (H1N1); conditions: MDCK cells; for EC50: Influenza A virus, H1N1, read-out: EC50 H1N1
H1N1 [6] = experiment: Virus yield reduction assay, H1N1; format: cell-based, influenza virus A/human/Hubei/86/2009 (H1N1); conditions: MDCK cells, — = less than 90% inhibition
Experimental: Virus yield reduction assays were also carried out to evaluate further the protective effects of the tested compounds.
The virus suspension, serially diluted 10-fold with DMEM containing 2% FBS, was inoculated to cells in a 96-well plate. After 1 h incubation at 37°C in 5% CO2, unbinding virus was washed out and DMEM maintenance medium supplemented with 2% FBS was added to the cells. After 2 days, the infected cells were monitored for cytopathic effects (CPEs). The virus titer was calculated by the Reed–Muench method.

[7] = Cytotoxicity, MTT method, uninfected RD cells; format: cell-based; conditions: human
Experimental: as §1

EV71 [8] = experiment: Progeny virus yield reduction, EV71 in RD cells; format: cell-based, Enterovirus 71; conditions: for reduction in progeny virus titers relative to virus control: 80 μM; for EC90: Enterovirus A, EV71, RD cells, progeny viral yield, read-out: EC90, compound concentration required to achieve 90% virus yield reduction
[9] = Cytotoxicity, MTT method, HeLa cells; format: cell-based; conditions: human
Experimental: as §1

CVB3 [10] = experiment: Virus yield reduction assay, CVB3; format: cell-based, Coxsackievirus B3; conditions: Enterovirus B, CVB3; Hep-2 cells; — = less than 90% inhibition; read-out: EC90 CVB3, concentration required to inhibit 90% virus yield
ADV-7 [11] = experiment: Virus yield reduction assay, ADV-7; format: cell-based, adenovirus 7; conditions: Human mastadenovirus B; HeLa cells; read-out: EC90 ADV-7, concentration required to inhibit 90% virus yield
[12] = Cytotoxicity, ATPLite luminescence-based assay, RD cells; format: cell-based; conditions: human
Source text: (§2) The ATPLite assay may be more sensitive to cytotoxicity than the MTT method. For RD and Hep-2 cells, similar results were obtained, and for HeLa and MDCK cells, the values of CC50 from the ATPLite assay were smaller than those from MTT assays (Tables 1, 2 and 3).

[13] = Cytotoxicity, ATPLite luminescence-based assay, Hep-2 cells; format: cell-based; conditions: human
Source text: as §2

[14] = Cytotoxicity, ATPLite luminescence-based assay, HeLa cells; format: cell-based; conditions: human
Source text: as §2

[15] = Cytotoxicity, ATPLite luminescence-based assay, MDCK cells; format: cell-based, canine; conditions: dog
Source text: as §2

EV71 [16] = experiment: Dependence of anti-EV71 activity on virus inoculum (cell viability, MTT) in RD cells; format: cell-based, Enterovirus 71; conditions: virus concentration above 10^4 TCID50
EV71 [17] = experiment: Virucidal activity against EV71; format: cell-based, Enterovirus 71; conditions: 80 μM pimprinethine, 40 μM WS-30581 A or 40 μM WS-30581 B; 24 h at 4°C; 10^3 TCID50
EV71 [18] = experiment: Effective stage analysis, EV71 in RD cells; format: cell-based, Enterovirus 71; conditions: 48 h; for virus titer reduction vs untreated cells: 80 μM, added post infection, EV71 100 TCID50; for viability at 80 µM: Enterovirus A, RD, added post infection (therapeutic), EV71 100 TCID50, read-out: viability rates of the infected cells
EV71 [19] = experiment: Adsorption analysis, EV71 on RD cells; format: cell-based, Enterovirus 71; conditions: 160 μM pimprinethine, 80 μM WS-30581 A, 80 μM WS-30581 B; EV71 10^4 TCID50; 2 h adsorption
EV71 [20] = experiment: Release analysis, EV71 from RD cells; format: cell-based, Enterovirus 71; conditions: 80 μM pimprinethine, 40 μM WS-30581 A or B; 12 h p.i.
EV71 [21] = conditions: EV71, RD cells
Experimental: (§3) Cell viability was assessed by an MTT assay, which functions based on the reduction of a MTT into formazan dye by active mitochondria. The cells were treated with 100 μL of MTT (1 mg/mL, Sigma) and incubated at 37°C for 4 h. The reaction was blocked by DMSO and measured in a microplate reader (Bio-Tek Instruments) at 492 nm. The untreated control was arbitrarily set as 100%.
(§4) Confluent cell monolayers in 96-well dishes were infected with 100 TCID50 of corresponding virus dilution mixed with serial dilutions of tested compounds for 1 h at 37°C. Inocula were aspirated and the cells were then incubated with various concentrations of DMEM/tested compounds at 37°C, 5% CO2 for 48 h. CPE were observed microscopically and the viability of the cells was determined using MTT assays. […] The concentrations required for the tested compounds to achieve 50% protection of cells from virus-induced CPE were determined.

EV71 [22] = experiment: microbe, parasite or virus in culture; conditions: Enterovirus A, EV71, RD, 48 h, read-out: EC50, compound concentration required to achieve 50% protection from virus-induced cytopathogenicity
Experimental: as §3, §4

CVB3 [23] = experiment: Inhibition of CVB3-induced CPE in Hep-2 cells; conditions: for EC50: Enterovirus B, CVB3, HEp-2, 48 h, read-out: EC50 CVB3; for SI CVB3, ratio CC50/EC50: Hep-2 cells
Experimental: as §3, §4

ADV-7 [24] = experiment: Inhibition of ADV-7-induced CPE in HeLa cells; conditions: for SI ADV-7, ratio CC50/EC50: HeLa cells; for EC50: Human mastadenovirus B, HeLa, 48 h, read-out: EC50 ADV-7
Experimental: as §3, §4

EV71 [25] = experiment: Antiviral activity of MAO inhibitors against EV71; format: cell-based, Enterovirus 71
CVB3 [26] = experiment: Antiviral activity of MAO inhibitors against CVB3; format: cell-based, Coxsackievirus B3
[27] = 100 TCID50, 48 h, CPE, — = less than 50% inhibition
[28] = RD cells, MTT, 48 h, mean ± SD of three experiments, read-out: CC50, compound concentration required to reduce cell viability by 50%
[29] = 100 TCID50 EV71, RD cells, 10 h
[30] = uninfected Hep-2 cells, host cells of CVB3: Hep-2, MTT, 48 h, read-out: CC50 (CVB3)
[31] = uninfected HeLa cells, host cells of ADV-7: HeLa, MTT, 48 h, read-out: CC50 (ADV-7)

## Nc1nc2c(ncn2COCCO)c(=O)[nH]1 [Acyclovir, reference compound]
[1]
  CC50 at 48 h: > 2000 µM
HSV-1 [2]; Human alphaherpesvirus 1, read-out: EC90 HSV-1, concentration required to inhibit 90% virus yield
  EC90: 24 ± 5 µM
HSV-1 [3]
  SI HSV-1, ratio CC50/EC50: >181
  EC50: 11 ± 1 µM

## NC12CC3CC(CC(C3)C1)C2 [Amantadine, reference compound]
[4]
  CC50 at 48 h: > 2000 µM
H1N1 [5]; [27]
  EC50: 73 ± 8 µM
H1N1 [5]
  SI H1N1, ratio CC50/EC50: >27
H1N1 [6]; Influenza A virus, H1N1, read-out: EC90 H1N1, concentration required to inhibit 90% virus yield
  EC90: 90 ± 12 µM

## CCc1ncc(-c2c[nH]c3ccccc23)o1 [Pimprinethine]
[7]; [28]
  CC50 at 48 h: 835 ± 20 µM
EV71 [8]; [29]
  reduction in progeny virus titers relative to virus control: 3.0 log
EV71 [8]
  EC90: 42 ± 3 µM
[1]; [30]
  CC50 at 48 h: 256 ± 49 µM
[9]; [31]
  CC50 at 48 h: 750 ± 30 µM
[4]
  CC50 at 48 h: 577 ± 73 µM
H1N1 [5]
  inhibition of H1N1 infection: negligible measurable inhibition
H1N1 [5]; [27]
  EC50 H1N1: — (—, less than 50% or 90% inhibition)
CVB3 [10]
  EC90: 58 ± 9 µM
HSV-1 [2]
  EC90 HSV-1, concentration required to inhibit 90% virus yield: — (—, less than 50% or 90% inhibition)
ADV-7 [11]
  EC90: 63 ± 5 µM
H1N1 [6]
  EC90 H1N1, concentration required to inhibit 90% virus yield: — (—, less than 50% or 90% inhibition)
[12]
  CC50: 656 ± 82 µM
[13]
  CC50: 233 ± 36 µM
[14]
  CC50: 550 ± 103 µM
[15]
  CC50: 406 ± 48 µM
EV71 [16]
  anti-EV71 inhibition at excessive virus inoculum: Inhibition was eliminated
EV71 [17]
  virus titers of EV71 mixture with vs without compound (virucidal activity): No significant difference
EV71 [18]
  virus titer reduction vs untreated cells: approximately 5.0 log
  viability at 80 µM: ~100%
EV71 [19]
  virus titer during virus attachment (adsorption): no significant decrease
EV71 [20]
  release of EV71 from RD cells: unaffected
EV71 [21]
  SI (selectivity index), ratio CC50/EC50: 24
EV71 [22]
  EC50: 35 ± 4 µM
HSV-1 [3]
  SI HSV-1, ratio CC50/EC50: 6
  EC50: 45 ± 3 µM
  inhibition of HSV-1-induced plaque formation: approximately 80%
CVB3 [23]
  EC50: 22 ± 4 µM
  SI CVB3, ratio CC50/EC50: 12
ADV-7 [24]
  SI ADV-7, ratio CC50/EC50: 23
  EC50: 33 ± 6 µM

## NC(=O)c1ncn([C@@H]2O[C@H](CO)[C@@H](O)[C@H]2O)n1 [Ribavirin, reference compound]
[7]
  CC50 at 48 h: 1230 ± 355 µM
EV71 [8]; 160 μM, 100 TCID50 EV71, RD cells, 10 h
  reduction in progeny virus titers: ~2.0 log
EV71 [8]
  EC90: 136 ± 49 µM
[1]
  CC50 at 48 h: 1310 ± 385 µM
[9]
  CC50 at 48 h: 1520 ± 243 µM
CVB3 [10]
  EC90: 103 ± 17 µM
ADV-7 [11]
  EC90: 132 ± 22 µM
EV71 [19]
  virus titer during virus attachment (adsorption): no significant decrease
EV71 [21]
  SI (selectivity index), ratio CC50/EC50: 12
EV71 [22]
  EC50: 102 ± 68 µM
CVB3 [23]
  EC50: 90 ± 10 µM
  SI CVB3, ratio CC50/EC50: 15
ADV-7 [24]
  SI ADV-7, ratio CC50/EC50: 13
  EC50: 116 ± 19 µM

## N[C@@H]1C[C@H]1c1ccccc1 [TCP]
EV71 [25]
  antiviral activity against EV71: inactive
CVB3 [26]
  antiviral activity against CVB3: inactive

## CCCCc1ncc(-c2c[nH]c3ccccc23)o1 [WS-30581 B]
[7]; [28]
  CC50 at 48 h: 229 ± 10 µM
EV71 [8]; [29]
  reduction in progeny virus titers relative to virus control: 3.0 log
EV71 [8]
  EC90: 18 ± 2 µM
[1]; [30]
  CC50 at 48 h: 83 ± 6 µM
[9]; [31]
  CC50 at 48 h: 354 ± 14 µM
[4]
  CC50 at 48 h: 215 ± 28 µM
H1N1 [5]; [27]
  EC50: 24 ± 5 µM
H1N1 [5]
  SI H1N1, ratio CC50/EC50: 9
  inhibition of H1N1 infection: less than 70%
CVB3 [10]
  EC90: 42 ± 6 µM
HSV-1 [2]
  EC90 HSV-1, concentration required to inhibit 90% virus yield: — (—, less than 50% or 90% inhibition)
ADV-7 [11]
  EC90: 48 ± 6 µM
H1N1 [6]
  EC90 H1N1, concentration required to inhibit 90% virus yield: — (—, less than 50% or 90% inhibition)
[12]
  CC50: 267 ± 31 µM
EV71 [16]
  anti-EV71 inhibition at excessive virus inoculum: Inhibition was eliminated
EV71 [17]
  virus titers of EV71 mixture with vs without compound (virucidal activity): No significant difference
EV71 [18]
  virus titer reduction vs untreated cells: approximately 5.0 log
  viability at 80 µM: ~100%
EV71 [19]
  virus titer during virus attachment (adsorption): no significant decrease
EV71 [20]
  release of EV71 from RD cells: unaffected
EV71 [21]
  SI (selectivity index), ratio CC50/EC50: 21
EV71 [22]
  EC50: 11 ± 3 µM
HSV-1 [3]
  SI HSV-1, ratio CC50/EC50: 6
  EC50: 14 ± 4 µM
  inhibition of HSV-1-induced plaque formation: approximately 80%
CVB3 [23]
  EC50: 12 ± 2 µM
  SI CVB3, ratio CC50/EC50: 7
ADV-7 [24]
  SI ADV-7, ratio CC50/EC50: 24
  EC50: 15 ± 2 µM

## C#CCN(C)Cc1ccccc1 [pargyline]
EV71 [25]
  antiviral activity against EV71: inactive
CVB3 [26]
  antiviral activity against CVB3: inactive
